Laboratory results taken from US20230322846A9, “NEUROACTIVE STEROIDS AND THEIR METHODS OF USE” (SAGE THERAPEUTICS, INC., priority 2018, published 2023).

What follows are compounds tested against [35S]-TBPS binding, rat brain cortical membranes (assay: Steroid inhibition of [35S]-TBPS binding). Settings: 3 nM [35S]-TBPS, in the presence of 5 mM GABA.
Outline: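 In the presence of […], compounds (DMSO 0.5% final) competed with 3 nM [35S]-TBPS for Sprague-Dawley rat cortical membranes, pH 7.4 phosphate buffer, 90 min, room temperature. Filtration and scintillation counting; specific binding defined by […]; IC50 and maximal inhibition fitted per experiment, averaged as mean ± SEM.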

Row | Structure (SMILES) | IC50 [nM]
1 | CCOC[C@@]1(O)CC[C@H]2[C@H](CC[C@@H]3[C@@H]2CC[C@]2(C)[C@@H]([C@H](C)Cn4nccn4)CC[C@@H]32)C1 [Example 265, (3R,5R,8R,9R,10S,13S,14S,17R)-17-((S)-1-(2H-1,2,3-triazol-2-yl)propan-2-yl)-3-(ethoxymethyl)-13-methylhexadecahydro-1H-cyclopenta[a]phenanthren-3-ol] | 100 to 1000
2 | CCOC[C@@]1(O)CC[C@H]2[C@H](CC[C@@H]3[C@@H]2CC[C@]2(C)[C@@H]([C@@H](C)Cn4nccn4)CC[C@@H]32)C1 [Example 266, (3R,5R,8R,9R,10S,13S,14S,17R)-17-((R)-1-(2H-1,2,3-triazol-2-yl)propan-2-yl)-3-(ethoxymethyl)-13-methylhexadecahydro-1H-cyclopenta[a]phenanthren-3-ol] | 100 to 1000
3 | CCOC[C@@]1(O)CC[C@H]2[C@H](CC[C@@H]3[C@@H]2CC[C@]2(C)[C@@H]([C@H](C)Cn4ccnn4)CC[C@@H]32)C1 [Example 267, (3R,5R,8R,9R,10S,13S,14S,17R)-17-((S)-1-(1H-1,2,3-triazol-1-yl)propan-2-yl)-3-(ethoxymethyl)-13-methylhexadecahydro-11H-cyclopenta[a]phenanthren-3-ol] | < 100
4 | CCOC[C@@]1(O)CC[C@H]2[C@H](CC[C@@H]3[C@@H]2CC[C@]2(C)[C@@H]([C@@H](C)Cn4ccnn4)CC[C@@H]32)C1 [Example 268, (3R,5R,8R,9R,10S,13S,14S,17R)-17-((R)-1-(1H-1,2,3-triazol-1-yl)propan-2-yl)-3-(ethoxymethyl)-13-methylhexadecahydro-1H-cyclopenta[a]phenanthren-3-ol] | < 100
5 | CCOC[C@@]1(O)CC[C@H]2[C@H](CC[C@@H]3[C@@H]2CC[C@]2(C)[C@@H]([C@@H](C)Cn4cc(C#N)cn4)CC[C@@H]32)C1 [Example 269, 1-((R)-2-((3R,5R,8R,9R,10S,13S,14S,17R)-3-(ethoxymethyl)-3-hydroxy-13-methylhexadecahydro-1H-cyclopenta[a]phenanthren-17-yl)propyl)-1H-pyrazole-4-carbonitrile] | < 100
6 | CC[C@@]1(O)CC[C@H]2[C@H](CC[C@@H]3[C@@H]2CC[C@]2(C)[C@@H]([C@H](C)Cn4ccc(C#N)n4)CC[C@@H]32)C1 [Example 271, 1-((S)-2-((3R,5R,8R,9R,10S,13S,14S,17R)-3-ethyl-3-hydroxy-13-methylhexadecahydro-1H-cyclopenta[a]phenanthren-17-yl)propyl)-1H-pyrazole-3-carbonitrile] | < 100
7 | CC[C@@]1(O)CC[C@H]2[C@H](CC[C@@H]3[C@@H]2CC[C@]2(C)[C@@H]([C@@H](C)Cn4nccc4C#N)CC[C@@H]32)C1 [Example 273, 1-((R)-2-((3R,5R,8R,9R,10S,13S,14S,17R)-3-ethyl-3-hydroxy-13-methylhexadecahydro-1H-cyclopenta[a]phenanthren-17-yl)propyl)-1H-pyrazole-5-carbonitrile] | < 100
8 | CC[C@@]1(O)CC[C@H]2[C@H](CC[C@@H]3[C@@H]2CC[C@]2(C)[C@@H]([C@H](C)Cn4nccc4C#N)CC[C@@H]32)C1 [Example 274, 1-((S)-2-((3R,5R,8R,9R,10S,13S,14S,17R)-3-ethyl-3-hydroxy-13-methylhexadecahydro-1H-cyclopenta[a]phenanthren-17-yl)propyl)-1H-pyrazole-5-carbonitrile] | 100 to 1000
9 | CC[C@@]1(O)CC[C@H]2[C@H](CC[C@@H]3[C@@H]2CC[C@]2(C)[C@@H]([C@@H](C)Cn4cc(C#N)cn4)CC[C@@H]32)C1 [Example 275, 1-((R)-2-((3R,5R,8R,9R,10S,13S,14S,17R)-3-ethyl-3-hydroxy-13-methylhexadecahydro-1H-cyclopenta[a]phenanthren-17-yl)propyl)-1H-pyrazole-4-carbonitrile] | < 100
10 | CCOC[C@@]1(O)CC[C@@]2(C)[C@H](CC[C@@H]3[C@@H]2CC[C@]2(C)[C@@H]([C@@H](C)Cn4ccc(C#N)n4)CC[C@@H]32)C1 [Example 279, 1-((R)-2-((3R,5R,8R,9S,10S,13S,14S,17R)-3-(ethoxymethyl)-3-hydroxy-10,13-dimethylhexadecahydro-1H-cyclopenta[a]phenanthren-17-yl)propyl)-1H-pyrazole-3-carbonitrile] | < 100
11 | COC[C@@]1(O)CC[C@@]2(C)[C@H](CC[C@@H]3[C@@H]2[C@H](O)C[C@]2(C)[C@@H]([C@H](C)Cn4cc(C#N)cn4)CC[C@@H]32)C1 [Example 282, 1-((S)-2-((3R,5R,8S,9S,10S,11R,13S,14S,17R)-3,11-dihydroxy-3-(methoxymethyl)-10,13-dimethylhexadecahydro-1H-cyclopenta[a]phenanthren-17-yl)propyl)-1H-pyrazole-4-carbonitrile] | 100 to 1000
12 | COC[C@@]1(O)CC[C@@]2(C)[C@H](CC[C@@H]3[C@@H]2[C@H](O)C[C@]2(C)[C@@H]([C@@H](C)Cn4cc(C#N)cn4)CC[C@@H]32)C1 [Example 283, 1-((R)-2-((3R,5R,8S,9S,10S,11R,13S,14S,17R)-3,11-dihydroxy-3-(methoxymethyl)-10,13-dimethylhexadecahydro-1H-cyclopenta[a]phenanthren-17-yl)propyl)-1H-pyrazole-4-carbonitrile] | 100 to 1000
13 | CCOC[C@@]1(O)CC[C@H]2[C@H](CC[C@@H]3[C@@H]2CC[C@]2(C)[C@@H]([C@@H](C)Cn4nccc4C#N)CC[C@@H]32)C1 [Example 285, 1-((R)-2-((3R,5R,8R,9R,10S,13S,14S,17R)-3-(ethoxymethyl)-3-hydroxy-13-methylhexadecahydro-1H-cyclopenta[a]phenanthren-17-yl)propyl)-1H-pyrazole-5-carbonitrile] | < 100
14 | CCOC[C@@]1(O)CC[C@H]2[C@H](CC[C@@H]3[C@@H]2CC[C@]2(C)[C@@H]([C@@H](C)Cn4ccc(C#N)n4)CC[C@@H]32)C1 [Example 288, 1-((R)-2-((3R,5R,8R,9R,10S,13S,14S,17R)-3-(ethoxymethyl)-3-hydroxy-13-methylhexadecahydro-1H-cyclopenta[a]phenanthren-17-yl)propyl)-1H-pyrazole-3-carbonitrile] | < 100
15 | CCOC[C@@]1(O)CC[C@H]2[C@H](CC[C@@H]3[C@@H]2CC[C@]2(C)[C@@H]([C@H](C)Cn4nnc(C)n4)CC[C@@H]32)C1 [Example 289, (3R,5R,8R,9R,10S,13S,14S,17R)-3-(ethoxymethyl)-13-methyl-17-((S)-1-(5-methyl-2H-tetrazol-2-yl)propan-2-yl)hexadecahydro-1H-cyclopenta[a]phenanthren-3-ol] | < 100
16 | CCOC[C@@]1(O)CC[C@H]2[C@H](CC[C@@H]3[C@@H]2CC[C@]2(C)[C@@H]([C@@H](C)Cn4nnc(C)n4)CC[C@@H]32)C1 [Example 290, (3R,5R,8R,9R,10S,13S,14S,17R)-3-(ethoxymethyl)-13-methyl-17-((R)-1-(5-methyl-2H-tetrazol-2-yl)propan-2-yl)hexadecahydro-1H-cyclopenta[a]phenanthren-3-ol] | < 100
17 | COC[C@@]1(O)CC[C@H]2[C@@H](CC[C@@H]3[C@@H]2CC[C@]2(C)[C@@H](CCn4nnc(C)n4)CC[C@@H]32)C1 [Example 295, (3R,5S,8R,9R,10S,13R,14S,17R)-3-(methoxymethyl)-13-methyl-17-(2-(5-methyl-2H-tetrazol-2-yl)ethyl)hexadecahydro-1H-cyclopenta[a]phenanthren-3-ol] | < 100
18 | COC[C@@]1(O)CC[C@H]2[C@@H](CC[C@@H]3[C@@H]2CC[C@]2(C)[C@@H](CCn4nnnc4C)CC[C@@H]32)C1 [Example 296, (3R,5S,8R,9R,10S,13R,14S,17R)-3-(methoxymethyl)-13-methyl-17-(2-(5-methyl-1H-tetrazol-1-yl)ethyl)hexadecahydro-1H-cyclopenta[a]phenanthren-3-ol] | < 100
19 | COC[C@@]1(O)CC[C@H]2[C@@H](CC[C@@H]3[C@@H]2CC[C@]2(C)[C@@H](CCn4nccn4)CC[C@@H]32)C1 [Example 297, (3R,5S,8R,9R,10S,13R,14S,17R)-17-(2-(2H-1,2,3-triazol-2-yl)ethyl)-3-(methoxymethyl)-13-methylhexadecahydro-1H-cyclopenta[a]phenanthren-3-ol] | < 100
20 | COC[C@@]1(O)CC[C@H]2[C@@H](CC[C@@H]3[C@@H]2CC[C@]2(C)[C@@H](CCn4ccnn4)CC[C@@H]32)C1 [Example 298, (3R,5S,8R,9R,10S,13R,14S,17R)-17-(2-(1H-1,2,3-triazol-1-yl)ethyl)-3-(methoxymethyl)-13-methylhexadecahydro-1H-cyclopenta[a]phenanthren-3-ol] | < 100
21 | CC(C)C[C@@]1(O)CC[C@H]2[C@H](CC[C@@H]3[C@@H]2CC[C@]2(C)[C@@H]([C@H](C)Cn4cc(C#N)cn4)CC[C@@H]32)C1 [Example 300, 1-((S)-2-((3S,5R,8R,9R,10S,13S,14S,17R)-3-hydroxy-3-isobutyl-13-methylhexadecahydro-1H-cyclopenta[a]phenanthren-17-yl)propyl)-1H-pyrazole-4-carbonitrile] | < 100
22 | CCC[C@@]1(O)CC[C@@]2(CC)[C@H](CC[C@H]3[C@@H]4CC[C@H]([C@@H](C)Cn5cc(C#N)cn5)[C@@]4(C)CC[C@@H]32)C1 [Example 301, 1-((R)-2-((3R,5R,8S,9S,10S,13S,14S,17R)-10-ethyl-3-hydroxy-13-methyl-3-propylhexadecahydro-1H-cyclopenta[a]phenanthren-17-yl)propyl)-1H-pyrazole-4-carbonitrile] | < 100
